The target of data set [1] is T1, human OATP1B3 (Homo sapiens, UniProt Q9NPD5).
T1 construct: expressed in transfected cells; host or cells: HEK293 (HEK-OATP1B3)
T1 sequence (Q9NPD5 1-702): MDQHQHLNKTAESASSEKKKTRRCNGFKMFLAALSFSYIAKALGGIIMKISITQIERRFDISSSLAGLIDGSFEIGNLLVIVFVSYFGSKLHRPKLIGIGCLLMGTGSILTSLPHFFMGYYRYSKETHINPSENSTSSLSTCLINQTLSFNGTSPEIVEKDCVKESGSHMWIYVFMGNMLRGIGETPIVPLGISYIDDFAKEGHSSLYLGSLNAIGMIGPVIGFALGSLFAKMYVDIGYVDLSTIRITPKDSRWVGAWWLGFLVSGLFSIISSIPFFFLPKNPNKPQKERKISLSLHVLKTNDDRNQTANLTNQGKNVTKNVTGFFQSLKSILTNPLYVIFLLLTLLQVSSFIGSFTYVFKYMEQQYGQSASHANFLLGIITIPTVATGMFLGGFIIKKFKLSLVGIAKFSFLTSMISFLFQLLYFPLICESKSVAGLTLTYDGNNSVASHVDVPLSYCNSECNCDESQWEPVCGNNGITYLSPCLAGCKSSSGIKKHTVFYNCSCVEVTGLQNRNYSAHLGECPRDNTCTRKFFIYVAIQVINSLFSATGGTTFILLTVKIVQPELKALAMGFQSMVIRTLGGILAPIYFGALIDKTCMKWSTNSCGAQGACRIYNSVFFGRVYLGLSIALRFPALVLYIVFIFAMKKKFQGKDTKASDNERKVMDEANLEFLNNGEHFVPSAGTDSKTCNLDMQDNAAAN
The experiment in a line: Uptake assay in HEK-OATP1B3 vs HEK-VC cells. It counts as in vitro ADME. Here is the method:
Transport experiments were performed 48 hours after seeding.

The target of data set [2] is T2, MATE1 (Homo sapiens, UniProt Q96FL8).
T2 sequence (Q96FL8 1-570): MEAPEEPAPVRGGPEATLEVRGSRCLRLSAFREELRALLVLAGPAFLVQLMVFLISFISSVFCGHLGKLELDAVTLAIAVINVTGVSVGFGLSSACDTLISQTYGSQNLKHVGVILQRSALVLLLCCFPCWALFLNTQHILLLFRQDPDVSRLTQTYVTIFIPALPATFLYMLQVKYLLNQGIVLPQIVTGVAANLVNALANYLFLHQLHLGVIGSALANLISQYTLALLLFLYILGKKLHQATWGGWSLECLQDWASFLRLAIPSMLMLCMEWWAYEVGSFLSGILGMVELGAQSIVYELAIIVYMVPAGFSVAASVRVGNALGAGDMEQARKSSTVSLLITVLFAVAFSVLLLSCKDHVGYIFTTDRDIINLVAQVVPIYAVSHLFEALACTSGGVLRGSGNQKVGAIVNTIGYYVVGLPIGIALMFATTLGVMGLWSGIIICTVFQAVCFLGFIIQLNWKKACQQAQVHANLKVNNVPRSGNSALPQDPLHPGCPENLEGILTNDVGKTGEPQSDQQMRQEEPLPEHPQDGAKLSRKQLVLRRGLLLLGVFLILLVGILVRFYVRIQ
The experiment in a line: Concentration-dependent transport in HEK-MATE1 cells (Km, Vmax). The settings on record: HEK-MATE1 net uptake; for Vmax for MATE1-mediated uptake: 5 min; for Km at 5 min: human, HEK-MATE1 cells, read-out: Km for MATE1-mediated transport. The format is in vitro ADME. Further details: expressed in transfected cells; host or cells: HEK293 (HEK-MATE1).
Protocol: (§1) Data are presented in percentage of respective controls (which were set to 100%) or in pmol × mg protein^–1 × min^–1 for concentration-dependent transport as mean ± SEM. All results were normalized to the mean protein concentrations of the cell lysates in the respective control experiments.
(§2) Experiments with putative biomarkers in HEK-OCT2 or HEK-MATE1 cells were performed with 6 independent biological replicates, whereas all other experiments involving HEK, MDCK, or Caco-2 cells were performed with 4 independent biological replicates. Pairwise comparisons were analyzed for statistical significance with two-tailed unpaired Student’s t test and multiple comparisons by one-way ANOVA with subsequent Tukey-Kramer multiple comparison test by using GraphPad Prism 10.0.2 (GraphPad Software). A value of P < .05 was considered as statistically significant. Km and Vmax values were determined with Michaelis-Menten enzyme kinetics curve fit using GraphPad Prism 10.0.2.

In data set [3] the test system is OCT2. The settings on record: read-out: Km value for OCT2; ref Ma et al 17; cited from earlier work.
The test system of data set [4] is OCT1. Conditions: read-out: Km for OCT1; cited from earlier work.
In data set [5] the target is T3, human OCT2 (Homo sapiens, UniProt O15244).
T3 sequence (O15244 1-555): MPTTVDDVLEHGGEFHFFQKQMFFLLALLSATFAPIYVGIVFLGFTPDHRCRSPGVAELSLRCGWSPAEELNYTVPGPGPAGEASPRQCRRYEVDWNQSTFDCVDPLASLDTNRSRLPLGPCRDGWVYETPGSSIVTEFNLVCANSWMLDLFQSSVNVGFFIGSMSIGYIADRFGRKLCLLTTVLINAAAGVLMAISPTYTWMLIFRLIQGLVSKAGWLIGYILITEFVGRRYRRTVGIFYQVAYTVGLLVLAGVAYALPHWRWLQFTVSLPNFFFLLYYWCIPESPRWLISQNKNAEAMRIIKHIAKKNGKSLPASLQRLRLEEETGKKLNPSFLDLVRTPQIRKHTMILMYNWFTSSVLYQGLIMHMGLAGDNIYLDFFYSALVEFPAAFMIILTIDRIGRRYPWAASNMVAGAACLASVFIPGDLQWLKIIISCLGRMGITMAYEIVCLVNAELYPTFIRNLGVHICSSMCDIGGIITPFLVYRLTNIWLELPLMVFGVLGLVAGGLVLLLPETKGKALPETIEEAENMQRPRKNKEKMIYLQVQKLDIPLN
The experiment in a line: Concentration-dependent transport in HEK-OCT2 cells (Km, Vmax). Conditions: concentrations up to 2000 μM; Km not calculable.
Protocol: as §1, §2

Entries after “also recorded” stand apart in the source; their conditions may differ.

Take `C[N+](C)(C)CCCCC(=O)[O-]` [5-Amino valeric acid betaine, 5-amino valeric acid betaine]: in data set [1], the “In Vitro OATP1B3 (substrate class)” value is 0 (significant uptake in HEK cells, but less than 300% of respective control cells or significant reduction of transcellular transport in Caco-2 cells, but reduction not below 50% of respective control without valspodar).
Consider `NCCc1ccc(O)cc1` [Tyramine, tyramine], for which the “In Vitro OATP1B3 (substrate class)” value in data set [1] is on record as “-”.
As to `NCCc1c[nH]c2ccc(O)cc12` [Serotonin, serotonin], in data set [2], the “Vmax for MATE1-mediated uptake” value is 154.3 ± 7.3 pmol*mg protein^-1*min^-1 and the Km at 5 min came out at 52.7 ± 10.9 µM. Moreover, the Km in data set [3] was 539 µM. Besides, the Km in data set [4] was 197 ± 42 µM. Moreover, the “In Vitro OATP1B3 (substrate class)” value in data set [1] is given as “-”.
For the compound `Cn1cnc(CCN)c1` [1-Methylhistamine, 1-methylhistamine], the “Saturation of net uptake in HEK-OCT2 cells” value in data set [5] is “did not result in a saturation; also recorded: not saturable”. In data set [2], the “Vmax for MATE1-mediated uptake” value stood at 441.4 ± 50.5 pmol*mg protein^-1*min^-1 and the Km at 5 min was found to be 307 ± 88.1 µM. Besides, the “In Vitro OATP1B3 (substrate class)” value in data set [1] was “-”.

Source of the values: paper PMC12799524, “Putative new biomarkers for renal transporter-mediated drug-drug interactions: Characterization as substrates of organic cation transporter 2, multidrug and toxin extrusion protein 1, and other important drug transporters” (Drug Metabolism and Disposition, 2025).
